Values quoted from earlier work in patent US12240810B2, “Chiral-substituted poly-N-vinylpyrrolidinones and complexes with bimetallic nanoclusters and uses thereof in asymmetric oxidation reactions” (Kansas State University Research Foundation, priority 2019, dated 2025).
Converted amounts (≈) assume the structure as drawn.

Test system: Staphylococcus aureus
Details: antibacterial activity, background statement on the natural product

CC=CCCCC[C@@]1(O)[C@H](C)C(=O)N2CCC[C@@]21CO [compound 113, (−)-Penibruguieramine A]
MIC value: 6.4 µg/mL (≈ 22.7 µM)
